Test results as given in ChEMBL document CHEMBL4261618, “Monodisperse oligoethylene glycols modified Propofol prodrugs” (Bioorg Med Chem Lett, 2018).
Values after ≈ are worked out from the molar mass of the structure shown.

What was measured:
A549 [1] = test: Cytotoxicity against human A549 cells after 24 hrs by MTT assay; type: cell-based; conditions: A549, 24 h
[2] = Solubility of the compound in pH 7.4 PBS buffer by ultraviolet spectroscopic method; type: physicochemical
L929 [3] = test: Cytotoxicity against mouse L929 cells after 24 hrs by MTT assay; type: cell-based; conditions: L929, 24 h
[4] = Cytotoxicity against human A549 cells assessed as cell viability at 0.05 mM after 24 hrs by MTT assay relative to control; type: cell-based; conditions: read-out: Activity
[5] = Cytotoxicity against mouse L929 cells assessed as cell viability at 0.05 mM after 24 hrs by MTT assay relative to control; type: cell-based; conditions: read-out: Activity
Rattus norvegicus [6] = test: Toxicity in Sprague-Dawley rat assessed as death at 0.073 mmol/kg, iv for 10 secs; type: organism-based; conditions: in vivo, 10 s
[7] = Prodrug activation in Sprague-Dawley rat plasma assessed as propofol release at 4 mg after 24 hrs by HPLC analysis; type: cell-free
[8] = Solubility of the compound in pH 7.4 PBS buffer containing 60% methanol by ultraviolet spectroscopic method; type: physicochemical
Rattus norvegicus [9] = test: Anesthetic activity in Sprague-Dawley rat assessed as anesthetic duration time at 0.073 mmol/kg, iv for 10 secs; type: functional
Rattus norvegicus [10] = test: Anesthetic activity in Sprague-Dawley rat assessed as onset time for loss of righting reflex at 0.073 mmol/kg, iv for 10 secs; type: functional
[11] = Prodrug activation in Sprague-Dawley rat plasma assessed as propofol release at 4 mg after 5 mins by HPLC analysis; type: cell-free
[12] = Critical micellar concentration of the compound in pyrene/acetone solution ultrasonicated for 30 mins followed by incubation in water bath at 60 degC for 40 mins and subsequent incubation at 40 degC for 12 hrs by fluorescence assay; type: physicochemical; conditions: buffer
L929 [13] = test: Cytotoxicity against mouse L929 cells assessed as reduction in cell viability up to 4 mM after 24 hrs by MTT assay; type: cell-based; conditions: l929, 24 h
A549 [14] = test: Cytotoxicity against human A549 cells assessed as reduction in cell viability up to 4 mM after 24 hrs by MTT assay; type: cell-based; conditions: a549, 24 h
[15] = Prodrug activation in Sprague-Dawley rat plasma assessed as propofol release at 4 mg after 1 mins by HPLC analysis; type: cell-free
[16] = Prodrug activation in Sprague-Dawley rat plasma assessed as propofol release at 4 mg after 20 mins by HPLC analysis; type: cell-free

Structure (SMILES) | solubility [2] [µg/mL] | EC50 (A549 [1]) [µM] | EC50 (L929 [3]) [µM] | viability at 24 h, 50 µM [4] [%] | viability at 24 h, 50 µM [5] [%] | also measured
COCCOCCOCCOCCOCCOCCOCCOCCOCCOCCOCOc1c(C(C)C)cccc1C(C)C | > 289000 | 610 | 210 | > 90 | > 90 | Activity (Rattus norvegicus [6]): Toxic; Drug metabolism [7]: Metabolite_Notdetected
COCCOCCOCC(=O)Oc1c(C(C)C)cccc1C(C)C |  | 4150 | 1410 | > 90 | > 90 | solubility [8]: 420 µg/mL (≈ 1240 µM)
COCCOCCOC(=O)Oc1c(C(C)C)cccc1C(C)C |  | > 10000 | 4600 | > 90 | > 90 | solubility [8]: 70 µg/mL (≈ 216 µM)
COCCOCCOCCOCCOCCOCCOCCOCCOCCOCCOCC(=O)Oc1c(C(C)C)cccc1C(C)C | > 371000 | 600 | 490 | > 90 | > 90 | Time (Rattus norvegicus [9]): 8.5 min; Time (Rattus norvegicus [10]): 0 s; Drug metabolism [7]: Metabolite_Detected; Drug metabolism [11]: Metabolite_Detected
COCCOCCOCCOCCOCCOCCOCCOCOc1c(C(C)C)cccc1C(C)C | 55400 (≈ 104000 µM) | 500 | 130 | > 90 | > 90 | Activity (Rattus norvegicus [6]): Toxic; CMC [12]: 0.6 mM
COCCOCCOCCOCCOCCOCCOCCOCCOCCOCCO |  |  |  |  |  | Activity (L929 [13]): Non-Toxic; Activity (A549 [14]): Non-Toxic
COCCOCCOCCO |  |  |  |  |  | Activity (L929 [13]): Non-Toxic; Activity (A549 [14]): Non-Toxic
COCCOCCOCOc1c(C(C)C)cccc1C(C)C |  | > 10000 | 4870 | > 90 | > 90 | solubility [8]: 200 µg/mL (≈ 644 µM)
CC(C)c1cccc(C(C)C)c1O [PROPOFOL] |  | 9550 | 4730 |  |  | Time (Rattus norvegicus [9]): 10.3 min; Time (Rattus norvegicus [10]): 0 s
COCCOCCOCCOCCOCCOCCOCOc1c(C(C)C)cccc1C(C)C | 1250 (≈ 2570 µM) | 510 | 140 | > 90 | > 90 | 
COCCOCCOCCOCCOCCOCCOCCOC(=O)Oc1c(C(C)C)cccc1C(C)C | 2730 (≈ 5010 µM) | 500 | 110 | > 90 | > 90 | CMC [12]: 1.5 mM
COCCOCCOCCOCCOCCOCCOCCOCCOCCOCCOC(=O)Oc1c(C(C)C)cccc1C(C)C | > 315000 | 400 | 420 | > 90 | > 90 | Time (Rattus norvegicus [9]): 5.6 min; Drug metabolism [16]: Metabolite_Detected; Time (Rattus norvegicus [10]): 0 s

The next lines start with results.

solubility [2] [µg/mL] | Structure (SMILES) | EC50 (A549 [1]) [µM] | EC50 (L929 [3]) [µM] | viability at 24 h, 50 µM [4] [%] | viability at 24 h, 50 µM [5] [%] | also measured
280 (≈ 790 µM) | COCCOCCOCCOCOc1c(C(C)C)cccc1C(C)C | > 10000 | 1170 | > 90 | > 90 | 
990 (≈ 2590 µM) | COCCOCCOCCOCC(=O)Oc1c(C(C)C)cccc1C(C)C | 740 | 650 | > 90 | > 90 | 
830 (≈ 1660 µM) | COCCOCCOCCOCCOCCOCCOC(=O)Oc1c(C(C)C)cccc1C(C)C | 730 | 510 | > 90 | > 90 | 
2020 (≈ 3920 µM) | COCCOCCOCCOCCOCCOCCOCC(=O)Oc1c(C(C)C)cccc1C(C)C | 520 | 110 | > 90 | > 90 | 
1580 (≈ 3700 µM) | COCCOCCOCCOCCOCC(=O)Oc1c(C(C)C)cccc1C(C)C | 630 | 440 | > 90 | > 90 | 
380 (≈ 921 µM) | COCCOCCOCCOCCOC(=O)Oc1c(C(C)C)cccc1C(C)C | 1360 | 1390 | > 90 | > 90 | 
> 216000 | COCCOCCOCCOCCOCCOCCOCCOCC(=O)Oc1c(C(C)C)cccc1C(C)C | 520 | 120 | > 90 | > 90 | Time (Rattus norvegicus [9]): 10.5 min; CMC [12]: 1.3 mM; Time (Rattus norvegicus [10]): 0 s; Drug metabolism [15]: Metabolite_Detected
570 (≈ 1430 µM) | COCCOCCOCCOCCOCOc1c(C(C)C)cccc1C(C)C | 1730 | 900 | > 90 | > 90 | 
190 (≈ 516 µM) | COCCOCCOCCOC(=O)Oc1c(C(C)C)cccc1C(C)C | 2130 | 2290 | > 90 | > 90 | 
